# Experimental data as given in patent publication US20180353460A1, “METHODS OF TREATING UROLOGICAL DISORDERS USING SARMs” (priority 2014, published 2018).
# Experiments:
# [1] = tested on: levator ani muscle; assay: Levator ani muscle weight in castrated rats treated subcutaneously for 14 days; format: in vivo, rat; details: castrated Sprague Dawley rats, subcutaneous, 3 mg/day
# Excerpt: At sacrifice, organs were weighed and expressed as raw organ weights. Values are expressed as average±S.D. Increased size and strength of pelvic floor muscles is one mechanism by which SARMs are believed to affect UI.
# At sacrifice, organs were weighed and expressed as raw organ weights. Values are expressed as average±S.D.
# [2] = tested on: human subjects; assay: Safety profile from other clinical trials (treatment related adverse events); format: in vivo
# Experimental: Described is the safety profile of Compound IX 3 mg PO daily in subjects with SUI. See Table 8 which is historical data from other clinical trials establishing the safety profile of Compound IX in human subjects. See also the lack of increase in endometrial thickness in Example 19.
# For the PGI-S measure, 12 patients reported symptoms as “moderate” or “severe” at baseline; whereas only 3 patients reported “moderate” symptoms and no patients reported “severe” at 12 weeks (FIG. 12A).
# Mean stress leaks decreased by 81 percent from baseline over 12 weeks (5.17 leaks/day at baseline to 1.0 leaks/day at week 12), and the reductions in daily stress leaks following completion of treatment have been sustained as subjects are being followed for up to 7 months post-treatment to assess the durability of treatment effect (0.63 leaks/day at 40 weeks (7 months post-treatment) in the first nine subjects). No subject has relapsed to their baseline levels. Urge urinary incontinence was also observed in 11 subjects, and Compound IX produced a 68% reduction from baseline over 12 weeks in these patients, which was also observed to be durable for at least 7 months (N=7). […] All were consistent with AR pharmacology and previous clinical trials with Compound IX. Based on the results from this Phase 2 proof-of-concept study with Compound IX, a randomized, placebo-controlled Phase 2 clinical trial to evaluate the change in frequency of daily stress urinary incontinence episodes following 12 weeks of treatment was initiated. The trial will evaluate the safety and efficacy of Compound IX (1 mg and 3 mg) compared with placebo in postmenopausal women with SUI.
# [3] = tested on: male and female humans; assay: Phase 3 studies G300504 and G300505: lean body mass; format: in vivo, human; details: 3 mg daily, two phase 3 studies
# Excerpt: Extensive clinical data related to the use of Compound IX are described below; however, there are both preclinical and clinical data supporting the specific investigation of Compound IX for the treatment of SUI. Among the preclinical findings are that Compound IX has androgenic and anabolic activity in male and female rat models. […] These studies together provide an approximation of the expected effect of Compound IX, since currently there are no data in female models regarding levator ani hypertrophy or stress urinary incontinence. […] Based upon these preclinical and clinical analyses, a significant growth/bulking of the levator ani in females with SUI was anticipated, which may also result in improvements in associated symptoms, and are therefore the focus of the study outlined herein.
smiles,measurement,setting,value
"C[C@](O)(COc1ccc(C#N)cc1)C(=O)Nc1ccc(C#N)c(C(F)(F)F)c1 [Compound IX, (S)—N-(4-Cyano-3-(trifluoromethyl)phenyl)-3-(4-cyanophenoxy)-2-hydroxy-2-methylpropanamide]",levator ani muscle weight,[1],elicits hypertrophy of the levator ani muscle
same,"Abdominal Pain, figure in parentheses (percent of subjects)",[2]; N = 896,(0.8)
same,"Abdominal Pain, number of subjects",[2]; N = 896,7
same,"Alanine Aminotransferase Increased, figure in parentheses (percent of subjects)",[2]; N = 896,(2.1)
same,"Alanine Aminotransferase Increased, number of subjects",[2]; N = 896,19
same,"Any Treatment Related Adverse Event, figure in parentheses (percent of subjects)",[2]; N = 896,(24.4)
same,"Any Treatment Related Adverse Event, number of subjects",[2]; N = 896,219
same,"Back pain, figure in parentheses (percent of subjects)",[2]; N = 896,(1.5)
same,"Back pain, number of subjects",[2]; N = 896,13
same,"Constipation, figure in parentheses (percent of subjects)",[2]; N = 896,(1.3)
same,"Constipation, number of subjects",[2]; N = 896,12
same,"Diarrhea, figure in parentheses (percent of subjects)",[2]; N = 896,(2.1)
same,"Diarrhea, number of subjects",[2]; N = 896,19
same,"Dizziness Postural, figure in parentheses (percent of subjects)",[2]; N = 896,(0.6)
same,"Dizziness Postural, number of subjects",[2]; N = 896,5
same,"Dizziness, figure in parentheses (percent of subjects)",[2]; N = 896,(2.0)
same,"Dizziness, number of subjects",[2]; N = 896,18
same,"Dyspnea, figure in parentheses (percent of subjects)",[2]; N = 896,(0.9)
same,"Dyspnea, number of subjects",[2]; N = 896,8
same,"Fatigue, figure in parentheses (percent of subjects)",[2]; N = 896,(0.9)
same,"Fatigue, number of subjects",[2]; N = 896,8
same,"Headache, figure in parentheses (percent of subjects)",[2]; N = 896,(5.7)
same,"Headache, number of subjects",[2]; N = 896,51
same,"Hot Flush, figure in parentheses (percent of subjects)",[2]; N = 896,(0.7)
same,"Hot Flush, number of subjects",[2]; N = 896,6
same,"Hyperhidrosis, figure in parentheses (percent of subjects)",[2]; N = 896,(1.0)
same,"Hyperhidrosis, number of subjects",[2]; N = 896,9
same,"Insomnia, figure in parentheses (percent of subjects)",[2]; N = 896,(0.6)
same,"Insomnia, number of subjects",[2]; N = 896,5
same,"Muscle Spasms, figure in parentheses (percent of subjects)",[2]; N = 896,(0.7)
same,"Muscle Spasms, number of subjects",[2]; N = 896,6
same,"Myalgia, figure in parentheses (percent of subjects)",[2]; N = 896,(0.7)
same,"Myalgia, number of subjects",[2]; N = 896,6
same,"Nausea, figure in parentheses (percent of subjects)",[2]; N = 896,(3.0)
same,"Nausea, number of subjects",[2]; N = 896,27
same,"Pain in Extremity, figure in parentheses (percent of subjects)",[2]; N = 896,(1.2)
same,"Pain in Extremity, number of subjects",[2]; N = 896,11
same,"Pruritus, figure in parentheses (percent of subjects)",[2]; N = 896,(1.0)
same,"Pruritus, number of subjects",[2]; N = 896,9
same,"Rash, figure in parentheses (percent of subjects)",[2]; N = 896,(0.6)
same,"Rash, number of subjects",[2]; N = 896,5
same,"Somnolence, figure in parentheses (percent of subjects)",[2]; N = 896,(1.0)
same,"Somnolence, number of subjects",[2]; N = 896,9
same,"Vomiting, figure in parentheses (percent of subjects)",[2]; N = 896,(1.3)
same,"Vomiting, number of subjects",[2]; N = 896,12
same,general safety and tolerability,"[2]; about 1,200 individuals, doses 0.1 mg to 100 mg",generally safe and well tolerated
same,increase in lean body mass,[3],approximately 1.7%
